According to ChEMBL document CHEMBL3217742, “Mapping of a lipoglycopeptide antibiotic binding site on Staphylococcus aureus penicillin-binding protein 2 using a vancomycin photoaffinity analogue” (2012):
Values after ≈ are worked out from the molar mass of the structure shown. Active and inactive are the calls of the source. No cut-off for these calls is given here.

Key:
Staphylococcus aureus [1] = experiment: Antibacterial activity against vancomycin A-resistant Staphylococcus aureus VRS2; assay type: functional
Enterococcus faecium [2] = experiment: Antibacterial activity against vancomycin B-resistant Enterococcus faecium SR23598; assay type: functional
Enterococcus faecium [3] = experiment: Antibacterial activity against vancomycin A-resistant Enterococcus faecium SR7940; assay type: functional
[4] = test system: Staphylococcus aureus subsp. aureus RN4220; experiment: Displacement of photoaffinity probe 1 from penicillin-binding protein-2 in Staphylococcus aureus RN4220 cell membrane incubated for 5 mins prior to photoaffinity probe 1 challenge for 5 mins measured after UV irradiation by SDS-PAGE based western blot analysis
Enterococcus faecium [5] = experiment: Antibacterial activity against vancomycin-susceptible Enterococcus faecium SR16972; assay type: functional
Staphylococcus aureus [6] = experiment: Antibacterial activity against vancomycin-susceptible Staphylococcus aureus RN4220; assay type: functional
[7] = test system: Staphylococcus aureus subsp. aureus RN4220; experiment: Binding affinity to Staphylococcus aureus RN4220 recombinant C-terminal His6-tagged PBP2 expressed in Escherichia coli cells at 2 uM incubated for 2 hrs measured after UV irradiation by LC-MALDI-MS/MS analysis
[8] = test system: Staphylococcus aureus subsp. aureus RN4220; experiment: Binding affinity to penicillin-binding protein-2 in Staphylococcus aureus RN4220 cell membrane at 50 uM incubated for 20 mins measured after UV irradiation by SDS-PAGE based immunostaining
[9] = test system: Staphylococcus aureus subsp. aureus RN4220; experiment: Binding affinity to penicillin-binding protein-2 transpeptidase domain in Staphylococcus aureus RN4220 cell membrane at 1 uM incubated for 1 hr measured after UV irradiation by pull-down assay

Compound	MIC (Staphylococcus aureus [1]) [µg/mL]	MIC (Enterococcus faecium [2]) [µg/mL]	MIC (Enterococcus faecium [3]) [µg/mL]	inhibition [4]	MIC (Enterococcus faecium [5]) [µg/mL]	MIC (Staphylococcus aureus [6]) [µg/mL]	Activity [7]	Activity [8]	Activity [9]
CN[C@H](CC(C)C)C(=O)N[C@H]1C(=O)N[C@@H](CC(N)=O)C(=O)N[C@H]2C(=O)N[C@H]3C(=O)N[C@H](C(=O)N[C@H](C(=O)O)c4cc(O)cc(O)c4-c4cc3ccc4O)[C@H](O)c3ccc(c(Cl)c3)Oc3cc2cc(c3O[C@@H]2O[C@H](CO)[C@@H](O)[C@H](O)[C@H]2O[C@H]2C[C@](C)(N)[C@H](O)[C@H](C)O2)Oc2ccc(cc2Cl)[C@H]1O [VANCOMYCIN]	> 64	> 64	> 64	–	–	–	–	–	–
CN[C@H](CC(C)C)C(=O)N[C@H]1C(=O)N[C@@H](CC(N)=O)C(=O)N[C@H]2C(=O)N[C@H]3C(=O)N[C@H](C(=O)N[C@H](C(=O)O)c4cc(O)cc(O)c4-c4cc3ccc4O)[C@H](O)c3ccc(c(Cl)c3)Oc3cc2cc(c3O[C@@H]2O[C@H](CO)[C@@H](O)[C@H](O)[C@H]2O[C@H]2C[C@](C)(NCc3cccc(NC(=O)c4ccc(C)c(OCc5ccccc5)c4[N+](=O)[O-])c3)[C@H](O)[C@H](C)O2)Oc2ccc(cc2Cl)[C@H]1O	0.5 (≈ 0.274 µM)	0.25 (≈ 0.137 µM)	1 (≈ 0.548 µM)	Dose-dependent effect	0.25 (≈ 0.137 µM)	0.125 (≈ 0.0685 µM)	–	–	–
CN[C@H](CC(C)C)C(=O)N[C@H]1C(=O)N[C@@H](CC(N)=O)C(=O)N[C@H]2C(=O)N[C@H]3C(=O)N[C@H](C(=O)N[C@H](C(=O)NCCCOCCOCCOCCCNC(=O)CCCC[C@@H]4SC[C@@H]5NC(=O)N[C@@H]54)c4cc(O)cc(O)c4-c4cc3ccc4O)[C@H](O)c3ccc(c(Cl)c3)Oc3cc2cc(c3O[C@@H]2O[C@H](CO)[C@@H](O)[C@H](O)[C@H]2O[C@H]2C[C@](C)(NCc3ccc(NC(=O)c4ccc(C5(C(F)(F)F)N=N5)cc4)nc3)[C@H](O)[C@H](C)O2)Oc2ccc(cc2Cl)[C@H]1O	2 (≈ 0.911 µM)	0.5 (≈ 0.228 µM)	2 (≈ 0.911 µM)	–	0.5 (≈ 0.228 µM)	1 (≈ 0.455 µM)	Active	Active	Active
